# Reference: patent publication US20170275269A1, “BENZYL SUBSTITUTED INDAZOLES AS BUB1 KINASE INHIBITORS” (Bayer Pharma Aktiengesellschaft, priority 2014, published 2017)
# Where two headings read alike, the source gives them in different places.
# Tests used:
# [1] = tested on: HeLa human cervical tumor cells; assay: Proliferation Assay (HeLa+Paclitaxel); conditions: read-out: Biological Assay 3.0: Proliferation Assay (HeLa + Paclitaxel):, 3 nM paclitaxel, 92 hours with test substance
# Method: Proliferation Assay (HeLa+Paclitaxel):
# Cultivated HeLa human cervical tumor cells (DSMZ ACC-57) were plated at a density of 3000 cells/well in a 96-well multititer plate in 200 μL of growth medium supplemented 10% fetal calf serum. After 24 hours, the cells of one plate (zero-point plate) were stained with crystal violet (see below). The medium of the other plates was supplemented with 3 nM of paclitaxel (Sigma-Aldrich) and the cells were incubated at 37° C. After 4 hours the test substances were added in various concentrations (0 μM, as well as in the range of 0.001-10 μM; the final concentration of the solvent dimethyl sulfoxide was adjusted to 0.1%) using a Hewlett-Packard HP D300 Digital Dispenser. The cells were incubated for another 92 hours at 37° C. in the presence of test substances. Cell proliferation was determined by staining the cells with crystal violet: the cells were fixed by adding 20 μL/measuring point of an 11% glutaric aldehyde solution for 15 minutes at room temperature. After three washing cycles of the fixed cells with water, the plates were dried at room temperature. The cells were stained by adding 100 μL/measuring point of a 0.1% crystal violet solution (pH 3.0). After three washing cycles of the stained cells with water, the plates were dried at room temperature. The dye was dissolved by adding 100 μL/measuring point of a 10% acetic acid solution. Absorption was determined by photometry at a wavelength of 595 nm. The change of cell number, in percent, was calculated by normalization of the measured values to the absorption values of the zero-point plate (=0%) and the absorption of the untreated (0 μm) cells (=100%). The IC50 values were determined by means of a 4 parameter fit.
# [2] = tested on: HeLa human cervical cancer cell line; assay: Proliferation assay (HeLa cell line)
# Method: Cultivated tumor cells (cells were ordered from ATCC) were plated at a density of 3000 cells/well in a 96-well multititer plate in 200 μL of growth medium supplemented 10% fetal calf serum. After 24 hours, the cells of one plate (zero-point plate) were stained with crystal violet (see below), while the medium of the other plates was replaced by fresh culture medium (200 μL), to which the test substances were added in various concentrations (0 μM, as well as in the range of 0.001-10 μM; the final concentration of the solvent dimethyl sulfoxide was 0.5%). The cells were incubated for 4 days in the presence of test substances. Cell proliferation was determined by staining the cells with crystal violet: the cells were fixed by adding 20 μL/measuring point of an 11% glutaric aldehyde solution for 15 minutes at room temperature. After three washing cycles of the fixed cells with water, the plates were dried at room temperature. The cells were stained by adding 100 μL/measuring point of a 0.1% crystal violet solution (pH 3.0). After three washing cycles of the stained cells with water, the plates were dried at room temperature. The dye was dissolved by adding 100 μL/measuring point of a 10% acetic acid solution. Absorption was determined by photometry at a wavelength of 595 nm. The change of cell number, in percent, was calculated by normalization of the measured values to the absorption values of the zero-point plate (=0%) and the absorption of the untreated (0 μm) cells (=100%). The IC50 values were determined by means of a 4 parameter fit.
# [3] = target: T1, catalytic domain of human Bub1 (amino acids 704-1085) (Homo sapiens, UniProt O43683); assay: Bub1 kinase assay (TR-FRET); assay type: biochemical
# T1 construct: catalytic domain of human Bub1 (amino acids 704-1085); His6 (N); made in house; host or cells: Hi5 insect cells
# Method: To this end, 100-fold concentrated compound solutions (in DMSO) were previously prepared by serial dilution (1:3.4) of 2 mM stocks in a clear low volume 384-well source microtiter plate (Greiner Bio-One, Frickenhausen, Germany), from which 50 nL of compounds were transferred into a black low volume test microtiter plate from the same supplier. […] The resulting mixture (5 μL final volume) was incubated at 22° C. during 60 min., and the reaction was stopped by the addition of 5 μL of an aqueous EDTA-solution (50 mM EDTA, in 100 mM HEPES pH 7.5 and 0.2% (w/v) bovine serum albumin) which also contained the TR-FRET detection reagents (0.2 μM streptavidin-XL665 [Cisbio Bioassays, Codolet, France] and 1 nM anti-phosho-Serine antibody [Merck Millipore, cat. #35-001] and 0.4 nM LANCE EU-W1024 labeled anti-mouse IgG antibody [Perkin-Elmer, product no. AD0077, alternatively a Terbium-cryptate-labeled anti-mouse IgG antibody from Cisbio Bioassays can be used]). The stopped reaction mixture was further incubated 1 h at 22° C. in order to allow the formation of complexes between peptides and detection reagents. Subsequently, the amount of product was evaluated by measurement of the resonance energy transfer from the Eu-chelate-antibody complex recognizing the Phosphoserine residue to the streptavidin-XL665 bound to the biotin moiety of the peptide. […] IC50 values were calculated by fitting the normalized inhibition data to a 4-parameter logistic equation (Minimum, Maximum, IC50, Hill; Y=Max+(Min−Max)/(1+(X/IC50)Hill)).
# [4] = Homo sapiens, 96 h, read-out: Biological Assay 2: Proliferation assay (HeLa cell line) median IC50
# [5] = 10 μM ATP, 1 μM peptide substrate, read-out: Biological Assay 1: Bub1 kinase assay median IC50
# [6] = Homo sapiens, 96 h, read-out: Biological Assay 2: Proliferation assay (HeLa cell line) median IC50, HeLa, 4 days incubation, crystal violet
# T1 sequence (O43683 704-1085): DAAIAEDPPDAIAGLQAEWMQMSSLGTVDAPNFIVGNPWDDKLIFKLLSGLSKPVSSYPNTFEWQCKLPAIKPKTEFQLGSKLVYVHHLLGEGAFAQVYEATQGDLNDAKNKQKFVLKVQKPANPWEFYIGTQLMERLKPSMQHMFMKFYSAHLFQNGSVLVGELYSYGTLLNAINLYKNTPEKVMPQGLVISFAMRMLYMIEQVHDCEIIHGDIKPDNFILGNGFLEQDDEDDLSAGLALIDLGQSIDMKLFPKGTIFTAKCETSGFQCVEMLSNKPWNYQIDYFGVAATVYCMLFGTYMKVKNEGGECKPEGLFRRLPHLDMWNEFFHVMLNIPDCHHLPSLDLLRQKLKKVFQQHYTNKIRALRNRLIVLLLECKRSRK
Compound,IC50 [1] [nM],"IC50 [2, 4] [nM]","IC50 [3, 5] [nM]","IC50 [2, 6] [nM]",IC50 [3] [nM],"IC50 ([2]; read-out: Biological Assay 2: Proliferation assay (HeLa cell line) median IC50, 4 days incubation, crystal violet) [nM]"
"CN1CCN(CCCOc2cnc(-c3nn(Cc4c(F)cc(OCC5CC5)cc4F)c4ccccc34)nc2Nc2ccncc2Cl)CC1 [Example 2-1-1, N-(3-chloropyridin-4-yl)-2-{1-[4-(cyclopropylmethoxy)-2,6-difluorobenzyl]-1H-indazol-3-yl}-5-[3-(4-methylpiperazin-1-yl)propoxy]pyrimidin-4-amine]",69,1100,10,,,
"Fc1cc(OCC2CC2)cc(F)c1Cn1nc(-c2ncc(OCCCN3CCOCC3)c(Nc3ccncc3Cl)n2)c2ccccc21 [Example 2-1-2, N-(3-chloropyridin-4-yl)-2-{1-[4-(cyclopropylmethoxy)-2,6-difluorobenzyl]-1H-indazol-3-yl}-5-[3-(morpholin-4-yl)propoxy]pyrimidin-4-amine]",760,5800,50,,,
"CCOc1cc(F)c(Cn2nc(-c3ncc(OCCCN4CCOCC4)c(Nc4ccnc(NC(C)=O)c4)n3)c3ccccc32)c(F)c1 [Example 2-1-3, N-[4-({2-[1-(4-ethoxy-2,6-difluorobenzyl)-1H-indazol-3-yl]-5-[3-(morpholin-4-yl)-propoxy]pyrimidin-4-yl}amino)pyridin-2-yl]acetamide]",78,3400,6.8,,,
"CCOc1cc(F)c(Cn2nc(-c3ncc(OCCCN4CCN(C)CC4)c(Nc4ccnc(NC(C)=O)c4)n3)c3ccccc32)c(F)c1 [Example 2-1-4, N-[4-({2-[1-(4-ethoxy-2,6-difluorobenzyl)-1H-indazol-3-yl]-5-[3-(4-methylpiperazin-1-yl)propoxy]pyrimidin-4-yl}amino)pyridin-2-yl]acetamide]",160,2000,4.6,,,
"CCOc1cc(F)c(Cn2nc(-c3ncc(OCCCN4CCN(CC(F)(F)F)CC4)c(Nc4ccnc(NC(C)=O)c4)n3)c3ccccc32)c(F)c1 [Example 2-1-5, N-{4-[(2-[1-(4-ethoxy-2,6-difluorobenzyl)-1H-indazol-3-yl]-5-{3-[4-(2,2,2-tri-fluoroethyl)piperazin-1-yl]propoxy}pyrimidin-4-yl)amino]pyridin-2-yl}acetamide]",440,,,> 10000,23,
"CCOc1cc(F)c(Cn2nc(-c3ncc(OCCCN4CCN(C)CC4)c(Nc4ccncn4)n3)c3ccccc32)c(F)c1 [Example 2-1-6, 2-[1-(4-ethoxy-2,6-difluorobenzyl)-1H-indazol-3-yl]-5-[3-(4-methylpiperazin-1-yl)propoxy]-N-(pyrimidin-4-yl)pyrimidin-4-amine]",860,1100,9.6,,,
"CCOc1cc(F)c(Cn2nc(-c3ncc(OCCCN4CCN(C)CC4)c(Nc4ccnc(C)n4)n3)c3ccccc32)c(F)c1 [Example 2-1-7, 2-[1-(4-ethoxy-2,6-difluorobenzyl)-1H-indazol-3-yl]-5-[3-(4-methylpiperazin-1-yl)propoxy]-N-(2-methylpyrimidin-4-yl)pyrimidin-4-amine]",430,3700,12,,,
"CCOc1cc(F)c(Cn2nc(-c3ncc(OCCCN4CCN(C)CC4)c(Nc4ccnc(C)c4)n3)c3ccccc32)c(F)c1 [Example 2-1-8, 2-[1-(4-ethoxy-2,6-difluorobenzyl)-1H-indazol-3-yl]-5-[3-(4-methylpiperazin-1-yl)propoxy]-N-(2-methylpyridin-4-yl)pyrimidin-4-amine]",370,1200,28,,,
"Fc1cc(OCC(F)F)cc(F)c1Cn1nc(-c2ncc(OCCCN3CCOCC3)c(Nc3ccncn3)n2)c2ccccc21 [Example 2-1-9, 2-{1-[4-(2,2-difluoroethoxy)-2,6-difluorobenzyl]-1H-indazol-3-yl}-5-[3-(morpholin-4-yl)propoxy]-N-(pyrimidin-4-yl)pyrimidin-4-amine]",490,3700,19,,,
"CCOc1cc(F)c(Cn2nc(-c3ncc(OCCCN4CCN(C)CC4)c(Nc4cc(C)ncc4C)n3)c3ccccc32)c(F)c1 [Example 2-1-10, N-(2,5-dimethylpyridin-4-yl)-2-[1-(4-ethoxy-2,6-difluorobenzyl)-1H-indazol-3-yl]-5-[3-(4-methylpiperazin-1-yl)propoxy]pyrimidin-4-amine]",160,550,250,,,
"Cc1cc(Nc2nc(-c3nn(Cc4c(F)cc(OCC5CC5)cc4F)c4ccccc34)ncc2OCCCN2CCOCC2)ccn1 [Example 2-1-11, 2-{1-[4-(cyclopropylmethoxy)-2,6-difluorobenzyl]-1H-indazol-3-yl}-N-(2-methylpyridin-4-yl)-5-[3-(morpholin-4-yl)propoxy]pyrimidin-4-amine]",,,370,,,
"CCOc1cc(F)c(Cn2nc(-c3ncc(OCCCCN4CC(F)(F)C4)c(Nc4ccncc4Cl)n3)c3ccccc32)c(F)c1 [Example 2-2-1, N-(3-chloropyridin-4-yl)-5-[4-(3,3-difluoroazetidin-1-yl)butoxy]-2-[1-(4-ethoxy-2,6-difluorobenzyl)-1H-indazol-3-yl]pyrimidin-4-amine]",140,,,9000,19,
"CCOc1cc(F)c(Cn2nc(-c3ncc(OCCCCN4CC(F)C4)c(Nc4cc(C)ncc4C)n3)c3ccccc32)c(F)c1 [Example 2-3-1, N-(2,5-dimethylpyridin-4-yl)-2-[1-(4-ethoxy-2,6-difluorobenzyl)-1H-indazol-3-yl]-5-[4-(3-fluoroazetidin-1-yl)butoxy]pyrimidin-4-amine]",33,,,1400,39,
"CCOc1cc(F)c(Cn2nc(-c3ncc(OCCCCN4CC(F)(F)C4)c(Nc4ccnc(C)n4)n3)c3ccccc32)c(F)c1 [Example 2-3-2, 5-[4-(3,3-difluoroazetidin-1-yl)butoxy]-2-[1-(4-ethoxy-2,6-difluorobenzyl)-1H-indazol-3-yl]-N-(2-methylpyrimidin-4-yl)pyrimidin-4-amine]",26,,,9300,34,
"CCOc1cc(F)c(Cn2nc(-c3ncc(OCCCCN4CC(F)C4)c(Nc4ccnc(C)n4)n3)c3ccccc32)c(F)c1 [Example 2-3-3, 2-[1-(4-ethoxy-2,6-difluorobenzyl)-1H-indazol-3-yl]-5-[4-(3-fluoroazetidin-1-yl)butoxy]-N-(2-methylpyrimidin-4-yl)pyrimidin-4-amine]",23,,,3700,12,
"CCOc1cc(F)c(Cn2nc(-c3ncc(OCCCCN4CCC(F)(F)CC4)c(Nc4ccnc(C)n4)n3)c3ccccc32)c(F)c1 [Example 2-3-4, 5-[4-(4,4-difluoropiperidin-1-yl)butoxy]-2-[1-(4-ethoxy-2,6-difluorobenzyl)-1H-indazol-3-yl]-N-(2-methylpyrimidin-4-yl)pyrimidin-4-amine]",51,,,> 10000,49,
"CCOc1cc(F)c(Cn2nc(-c3ncc(OCCCCN4CCC(F)(F)CC4)c(Nc4cc(C)ncc4C)n3)c3ccccc32)c(F)c1 [Example 2-3-5, 5-[4-(4,4-difluoropiperidin-1-yl)butoxy]-N-(2,5-dimethylpyridin-4-yl)-2-[1-(4-ethoxy-2,6-difluorobenzyl)-1H-indazol-3-yl]pyrimidin-4-amine]",31,,,6800,230,
"CCOc1cc(F)c(Cn2nc(-c3ncc(OC[C@H](C)NCC(F)(F)F)c(Nc4ccnc(C)n4)n3)c3ccccc32)c(F)c1 [Example 2-4-1, 2-[1-(4-ethoxy-2,6-difluorobenzyl)-1H-indazol-3-yl]-N-(2-methylpyrimidin-4-yl)-5-({(2S)-2-[(2,2,2-trifluoroethyl)amino]propyl}oxy)pyrimidin-4-amine]",140,,,880,11,
"CCOc1cc(F)c(Cn2nc(-c3ncc(OCCN4CCOCC4)c(Nc4ccncc4)n3)c3ccccc32)c(F)c1 [Example 3-1-1, 2-[1-(4-ethoxy-2,6-difluorobenzyl)-1H-indazol-3-yl]-5-[2-(morpholin-4-yl)ethoxy]-N-(pyridin-4-yl)pyrimidin-4-amine, reference compound]",260,,,9000,,> 10000
